Tests used:
[1] = system: 3T3 L1 fibroblasts; assay: Glucose transport activity assay (14C-2-deoxy-D-glucose uptake); format: cell-based
Outline: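 Differentiated 3T3 L1 adipocytes (IBMX/dexamethasone/insulin induction), serum-starved overnight, preincubated 30 min at 37 °C with compound ± insulin in pH 7.4 salt buffer, then 30 min with 5 μCi/ml 14C-2-deoxy-D-glucose. Lysate radioactivity counted; EC = concentration raising uptake above 150% of vehicle control.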

[2] = biological target: insulin-like growth factor type 1 (IGF-1) receptor (Homo sapiens, UniProt P08069); assay: Selectivity: IGF-1 receptor phosphorylation; format: cell-based; conditions: in the absence or presence of IGF-1
Sequence of insulin-like growth factor type 1 (IGF-1) receptor (P08069 741-1367 limits assumed): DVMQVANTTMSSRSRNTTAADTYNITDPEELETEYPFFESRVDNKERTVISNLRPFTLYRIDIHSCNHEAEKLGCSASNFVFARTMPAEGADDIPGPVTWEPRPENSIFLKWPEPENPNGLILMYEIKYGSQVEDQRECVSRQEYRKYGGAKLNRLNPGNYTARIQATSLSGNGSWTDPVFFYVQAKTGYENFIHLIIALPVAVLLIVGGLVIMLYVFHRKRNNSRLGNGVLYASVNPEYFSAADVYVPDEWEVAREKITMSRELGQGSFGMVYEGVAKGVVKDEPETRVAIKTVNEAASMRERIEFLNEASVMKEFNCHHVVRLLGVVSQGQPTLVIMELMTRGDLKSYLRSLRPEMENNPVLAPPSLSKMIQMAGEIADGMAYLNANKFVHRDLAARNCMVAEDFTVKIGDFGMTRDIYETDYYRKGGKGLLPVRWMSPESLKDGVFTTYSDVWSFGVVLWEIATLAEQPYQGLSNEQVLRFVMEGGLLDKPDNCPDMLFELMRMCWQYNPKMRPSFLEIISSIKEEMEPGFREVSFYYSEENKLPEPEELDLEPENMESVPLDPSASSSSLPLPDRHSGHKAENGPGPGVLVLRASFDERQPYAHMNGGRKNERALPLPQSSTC
Sequence of insulin-like growth factor type 1 (IGF-1) receptor (P08069 31-736 partner limits assumed): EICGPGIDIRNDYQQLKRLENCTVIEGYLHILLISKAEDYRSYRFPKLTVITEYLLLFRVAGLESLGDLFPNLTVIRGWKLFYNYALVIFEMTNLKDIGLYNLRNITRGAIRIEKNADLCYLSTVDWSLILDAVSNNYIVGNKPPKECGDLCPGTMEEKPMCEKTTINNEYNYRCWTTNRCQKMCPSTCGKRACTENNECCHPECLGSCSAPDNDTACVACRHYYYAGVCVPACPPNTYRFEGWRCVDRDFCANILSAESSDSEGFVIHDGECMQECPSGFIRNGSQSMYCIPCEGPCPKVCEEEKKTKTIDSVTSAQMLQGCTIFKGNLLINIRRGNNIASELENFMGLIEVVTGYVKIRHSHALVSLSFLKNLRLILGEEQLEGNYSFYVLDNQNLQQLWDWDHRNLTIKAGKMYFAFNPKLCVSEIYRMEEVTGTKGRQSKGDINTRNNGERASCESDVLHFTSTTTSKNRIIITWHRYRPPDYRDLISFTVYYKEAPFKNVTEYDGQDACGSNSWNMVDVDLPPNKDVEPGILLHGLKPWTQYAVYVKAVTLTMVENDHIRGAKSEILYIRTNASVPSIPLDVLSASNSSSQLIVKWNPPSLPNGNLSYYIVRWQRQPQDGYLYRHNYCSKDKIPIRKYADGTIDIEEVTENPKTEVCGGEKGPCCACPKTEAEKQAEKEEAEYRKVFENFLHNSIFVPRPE

[3] = system: ob/ob mouse; assay: Blood glucose, insulin and triglycerides in the ob/ob mouse model of Type 2 diabetes; format: in vivo; conditions: ob/ob mice, single dose 30 mg/kg, p.o.
Description: Lowering of Blood Glucose, Insulin and Triglycerides in the ob/ob Mouse Model of Type 2 Diabetes Another standard model of Type 2 diabetes is the ob/ob mouse. Male ob/ob mice (C57 BL/6J-ob) were housed 3–5 to a cage with free access to standard rodent chow pellets. After one week, they were given a single dose of Compound 15 (30 mg/kg, p.o.). Compound 15 produced a 13% decrease in blood glucose levels, a 42% decrease in plasma insulin levels, and a 15% decrease in plasma triglyceride levels. The concomitant reduction of plasma glucose and insulin levels are consistent with a reduction in insulin resistance.

[4] = biological target: T1, insulin receptor (Rattus norvegicus, UniProt P15127); assay: Rat muscle insulin receptor phosphorylation after oral dose; format: in vivo; conditions: STZ/HFD rats, oral dose 30 mg/kg, muscle samples 0.5-6 hr (FIG. 12)
T1 construct: from tissue; host or cells: rat muscle (in vivo oral dosing)
T1 sequence (P15127 764-1383 limits assumed): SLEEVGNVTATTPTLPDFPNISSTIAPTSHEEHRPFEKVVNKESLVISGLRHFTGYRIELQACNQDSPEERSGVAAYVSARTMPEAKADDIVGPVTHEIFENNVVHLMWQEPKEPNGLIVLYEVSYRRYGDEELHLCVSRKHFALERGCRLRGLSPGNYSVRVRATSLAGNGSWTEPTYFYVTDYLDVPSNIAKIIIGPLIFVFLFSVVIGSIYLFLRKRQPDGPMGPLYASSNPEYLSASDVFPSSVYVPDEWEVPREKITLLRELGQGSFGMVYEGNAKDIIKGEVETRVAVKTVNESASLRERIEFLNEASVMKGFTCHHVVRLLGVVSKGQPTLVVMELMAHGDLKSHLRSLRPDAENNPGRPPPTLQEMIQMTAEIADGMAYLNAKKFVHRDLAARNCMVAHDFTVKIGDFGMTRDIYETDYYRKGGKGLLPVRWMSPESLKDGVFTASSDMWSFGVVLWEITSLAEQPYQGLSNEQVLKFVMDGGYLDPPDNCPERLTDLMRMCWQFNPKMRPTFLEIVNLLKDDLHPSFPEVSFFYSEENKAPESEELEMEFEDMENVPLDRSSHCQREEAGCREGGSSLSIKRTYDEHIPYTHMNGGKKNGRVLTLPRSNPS
T1 sequence (P15127 27-759 partner limits assumed): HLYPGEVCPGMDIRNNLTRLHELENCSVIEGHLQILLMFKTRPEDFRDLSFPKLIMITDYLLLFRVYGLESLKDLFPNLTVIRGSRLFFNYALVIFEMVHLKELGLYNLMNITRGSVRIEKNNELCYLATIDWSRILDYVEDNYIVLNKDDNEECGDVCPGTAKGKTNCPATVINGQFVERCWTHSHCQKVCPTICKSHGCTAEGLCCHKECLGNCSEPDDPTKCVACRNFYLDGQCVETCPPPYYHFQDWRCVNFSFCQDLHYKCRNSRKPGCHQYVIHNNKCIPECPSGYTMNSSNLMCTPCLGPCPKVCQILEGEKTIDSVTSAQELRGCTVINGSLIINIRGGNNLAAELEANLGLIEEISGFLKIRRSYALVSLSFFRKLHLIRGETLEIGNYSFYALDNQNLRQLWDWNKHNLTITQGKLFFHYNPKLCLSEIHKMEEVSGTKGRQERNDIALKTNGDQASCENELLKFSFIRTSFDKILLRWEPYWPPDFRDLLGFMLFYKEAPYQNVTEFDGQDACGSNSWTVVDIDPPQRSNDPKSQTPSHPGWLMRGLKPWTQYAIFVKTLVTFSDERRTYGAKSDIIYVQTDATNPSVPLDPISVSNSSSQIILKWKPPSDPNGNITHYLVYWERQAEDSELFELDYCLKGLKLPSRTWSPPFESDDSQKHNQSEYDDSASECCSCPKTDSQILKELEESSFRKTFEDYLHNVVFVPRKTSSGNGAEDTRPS
Description: Rat Muscle Phosphorylation
Muscle is a particularly important tissue for taking up glucose from the blood in response to insulin receptor stimulation. Activation of muscle insulin receptors is, therefore, an important factor in the control of blood glucose levels. STZ/HFD rats prepared as in Example 18 were given an oral dose of Compound 15 (30 mg/kg), and muscle samples were harvested at different time points (0.5 hr, 1 hr, 2 hr, 3 hr, 4 hr, 6 hr) and homogenized in extraction buffer (50 mM Tris.HCl pH 7.4, 150 mM NaCl, 0.25% sodium deoxycholate, 1% NP40, 1 mM EGTA, 1 mM PMSF, 1 mM Na3VO4, 1 mM NaF, 1 ug/ml each of Aprotinin, Leupeptin and Pepstatin). The tissue homogenate was centrifuged at 12K for 30 min at 4° C., and the supernatants were saved. An equal protein amount from each sample was immunoprecipitated with anti-insulin receptor antibody for 2 hr at 4° C., followed by another 1 hr incubation with Protein G-Agarose beads. The immunecomplexes were washed three times with the extraction buffer, and the samples were boiled in 2× SDS-PAGE loading buffer for 5 min at 100° C. The samples were resolved in a 7.5% SDS-PAGE along with Amersham rainbow marker protein as a molecular weight standard. […]

[5] = system: STZ/HFD rats; assay: Multi-dosing in STZ/HFD rats; format: in vivo, rat; conditions: 30 mg/kg oral daily, 3 days (FIG. 14)
Description: Multi-Dosing in STZ/HFD Rats
STZ/HFD rats were prepared as in example 19. Compound 15 or an equivalent amount of the vehicle (PBS) was administered daily by the oral route at a dose of 30 mg/kg. Blood samples were taken by an IACUC-approved protocol (tail cap method) immediately before each dose and 4 and 6 (day one only) hours later. Blood glucose levels were measured using a Glucometer Elite (Bayer, Elkhart, Ind.). The blood glucose levels of the vehicle-treated group fell over the course of the experiment as the animals recovered from the low dose of STZ (FIG. 14).

[6] = system: male db/db mice; assay: Acute toxicity in db/db mice; format: in vivo; conditions: i.p., 300 mg/kg in PBS
Description: Compound 15 was administered in PBS vehicle to male db/db mice (i.p.) and male CD rats (p.o.) at 300 mg/kg, which is approximately 10 times its effective dose.

[7] = biological target: CYP3A4 (Homo sapiens, UniProt P08684); assay: P450 interactions: CYP3A4 inhibition; format: in vitro ADME; conditions: human cytochromes P450
Sequence of CYP3A4 (P08684 whole entry): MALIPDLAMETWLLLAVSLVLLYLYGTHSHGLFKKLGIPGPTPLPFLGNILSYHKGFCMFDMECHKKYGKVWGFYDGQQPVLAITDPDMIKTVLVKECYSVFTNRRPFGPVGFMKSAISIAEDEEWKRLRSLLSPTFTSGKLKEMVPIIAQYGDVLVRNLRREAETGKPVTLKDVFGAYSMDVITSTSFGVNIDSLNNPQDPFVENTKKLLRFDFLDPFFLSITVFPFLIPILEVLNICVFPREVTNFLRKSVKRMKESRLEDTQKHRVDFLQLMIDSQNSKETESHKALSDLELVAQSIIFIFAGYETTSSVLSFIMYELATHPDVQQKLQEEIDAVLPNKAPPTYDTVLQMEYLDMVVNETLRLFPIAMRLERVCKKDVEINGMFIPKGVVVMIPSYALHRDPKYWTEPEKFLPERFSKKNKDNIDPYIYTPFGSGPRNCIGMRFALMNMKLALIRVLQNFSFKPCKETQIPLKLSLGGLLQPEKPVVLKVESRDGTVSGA
From the text: A major pathway for elimination of drugs from the body, which may limit their effectiveness, is the cytochrome P450 system of the liver.

O=C(Nc1ccc2c(O)cc(S(=O)(=O)Nc3cccc(S(=O)(=O)O)c3)cc2c1)Nc1ccc2c(O)cc(S(=O)(=O)Nc3cccc(S(=O)(=O)O)c3)cc2c1 [Compound 15, 3-{[(4-hydroxy-7-{[N-(5-hydroxy-7-{[(3-sulfophenyl)amino]sulfonyl}(2-naphthyl))carbamoyl]amino}-2-naphthyl)sulfonyl]amino}benzenesulfonic acid] was tested, and the EC (150% of vehicle control) ([1]; Mus musculus, EC (effective concentration) for increase in glucose transport, 14C-2-deoxy-D-glucose, 3T3 L1 cells, read-out: Concentration (μM) to reach >150% activity of vehicle control) was 3.2 µM, the “glucose uptake of cells” value ([1]; in the presence or absence of insulin (FIG. 3)) was “increase in glucose uptake of cells” and the “phosphorylation of the IGF-1 receptor” value [2] was “not to increase the phosphorylation”. The “decrease in blood glucose levels” value [3] was 13%, the “decrease in plasma insulin levels” value [3] was 42% and the “decrease in plasma triglyceride levels” value [3] was 15%. The “phosphorylation of the insulin receptor in muscle” value [4] was “produced an increase in phosphorylation of the insulin receptor”, the “blood glucose levels versus vehicle-treated group” value [5] was “lowered blood glucose levels below those of the vehicle-treated group by 6 hours after administration” and the acute toxicity [6] was “No acute toxicity was seen”. For the same molecule, the “inhibition of catalytic activity of CYP3A4” value [7] was “did not inhibit”.

Source: patent US7071231B2, “Naphthalene ureas as glucose uptake enhancers” (Telik, Inc., priority 1999, dated 2006)
